Tests used:
[1] = target: human Gal-3 (hGal-3) (Homo sapiens (Human), UniProt P17931); assay: Competitive binding assay: biotinylated hGal-3 binding to microplate-adsorbed asialofetuin (ASF); conditions: Activity on hGal-3; binding of biotinylated hGal-3 to ASF-coated plates; mean values
How it was run: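 Serially diluted compounds competed with biotinylated human Gal-3 for binding to plate-adsorbed asialofetuin over 3 h at 4 °C. Bound Gal-3 was detected with streptavidin-peroxidase (80 ng/mL, 1 h, 4 °C) and ABTS substrate. IC50 values are means of several measurements.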

[2] = target: human Gal-1 (hGal-1) (Homo sapiens, UniProt P09382); assay: Competitive binding assay: biotinylated hGal-1 binding to microplate-adsorbed asialofetuin (ASF); conditions: Activity on hGal-1; binding of biotinylated hGal-1 to ASF-coated plates; mean values
human Gal-1 (hGal-1) (Homo sapiens, UniProt P09382), sequence (P09382 2-135 limits assumed): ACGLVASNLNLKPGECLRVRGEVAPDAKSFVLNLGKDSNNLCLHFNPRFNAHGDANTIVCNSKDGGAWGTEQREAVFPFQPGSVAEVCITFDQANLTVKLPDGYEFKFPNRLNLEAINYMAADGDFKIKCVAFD
How it was run: (§1)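 Inhibition measured as loss of hGal-1 (biotinylated, 300–1000 ng/mL, wild type or Cys→Ser mutant) binding to adsorbed asialofetuin over 3 h at 4 °C. Bound lectin detected with streptavidin-HRP and ABTS (410 nm, 30–45 min); IC50 values averaged across repeat measurements.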

[3] = target: human Gal-1 (hGal-1); assay: as above; conditions: Activity on hGal-1; binding of biotinylated hGal-1 to ASF-coated plates; mean values
human Gal-1 (hGal-1), sequence (P09382 2-135 limits assumed): as above
How it was run: as §1

human Gal-3 (hGal-3), sequence (P17931 whole entry): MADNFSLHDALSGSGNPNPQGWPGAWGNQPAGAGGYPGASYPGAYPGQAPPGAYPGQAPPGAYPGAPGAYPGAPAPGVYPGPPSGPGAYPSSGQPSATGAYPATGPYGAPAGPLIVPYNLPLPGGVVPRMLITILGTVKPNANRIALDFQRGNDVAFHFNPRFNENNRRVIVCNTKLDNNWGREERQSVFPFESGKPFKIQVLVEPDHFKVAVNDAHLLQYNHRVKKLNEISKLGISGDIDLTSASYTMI

| IC50 [1] | IC50 [3] | Compound | IC50 [2] |
| --- | --- | --- | --- |
| 87 nM | 1820 nM | COc1cc(C#N)cc(N(C(=O)[C@@H]2O[C@H](CO)[C@H](O)[C@H](n3cc(-c4ccc(C#N)c(F)c4)nn3)[C@H]2OC)[C@H]2CCCC[C@@H]2O)c1 [Example 205, (2R,3R,4S,5R,6R)-4-(4-(4-cyano-3-fluorophenyl)-1H-1,2,3-triazol-1-yl)-N-(3-cyano-5-methoxyphenyl)-5-hydroxy-N-((1S,2S)-2-hydroxycyclohexyl)-6-(hydroxymethyl)-3-methoxytetrahydro-2H-pyran-2-carboxamide] | – |
| 126 nM | 1340 nM | CO[C@@H]1[C@@H](n2cc(-c3ccc(C#N)c(F)c3)nn2)[C@@H](O)[C@@H](CO)O[C@H]1C(=O)N(c1cc(C)cc(C#N)c1)[C@H]1CCCC[C@@H]1O [Example 206, (2R,3R,4S,5R,6R)-4-(4-(4-cyano-3-fluorophenyl)-1H-1,2,3-triazol-1-yl)-N-(3-cyano-5-methylphenyl)-5-hydroxy-N-((1S,2S)-2-hydroxycyclohexyl)-6-(hydroxymethyl)-3-methoxytetrahydro-2H-pyran-2-carboxamide] | – |
| 49 nM | 1790 nM | CO[C@@H]1[C@@H](n2cc(-c3cc(F)c(F)c(F)c3)nn2)[C@@H](O)[C@@H](CO)O[C@H]1C(=O)N(c1cccc(Cl)c1)[C@H]1CCCCC[C@@H]1O [Example 207, (2R,3R,4S,5R,6R)-N-(3-chlorophenyl)-5-hydroxy-N-((1S,2S)-2-hydroxycycloheptyl)-6-(hydroxymethyl)-3-methoxy-4-(4-(3,4,5-trifluorophenyl)-1H-1,2,3-triazol-1-yl)tetrahydro-2H-pyran-2-carboxamide] | – |
| 62 nM | 586 nM | CO[C@@H]1[C@@H](n2cc(-c3cc(F)c(F)c(F)c3)nn2)[C@@H](O)[C@@H](CO)O[C@H]1C(=O)N(c1cc(Cl)cc(Cl)c1)[C@H]1CCCCC[C@@H]1O [Example 208, (2R,3R,4S,5R,6R)-N-(3,5-dichlorophenyl)-5-hydroxy-N-((1S,2S)-2-hydroxycycloheptyl)-6-(hydroxymethyl)-3-methoxy-4-(4-(3,4,5-trifluorophenyl)-1H-1,2,3-triazol-1-yl)tetrahydro-2H-pyran-2-carboxamide] | – |

| Compound | IC50 [1] | IC50 [3] | IC50 [2] |
| --- | --- | --- | --- |
| CO[C@@H]1[C@@H](n2cc(-c3cc(F)c(C)c(F)c3)nn2)[C@@H](O)[C@@H](CO)O[C@H]1C(=O)N(c1cc(F)cc(Br)c1)[C@H]1CCCC[C@@H]1O [Example 160, (2R,3R,4S,5R,6R)-N-(3-bromo-5-fluorophenyl)-4-(4-(3,5-difluoro-4-methylphenyl)-1H-1,2,3-triazol-1-yl)-5-hydroxy-N-((1S,2S)-2-hydroxycyclohexyl)-6-(hydroxymethyl)-3-methoxytetrahydro-2H-pyran-2-carboxamide] | 11 nM | – | 1770 nM |
| (2R,3R,5R,6R)—N-(3,5-dichlorophenyl)-5-hydroxy-N-(1S,2S)-2-hydroxycyclohexyl-3-(2-hydroxyethoxy)-6-(hydroxymethyl)-4-(4-(3,4,5-trifluorophenyl)-1H-1,2,3-triazol-1-yl)tetrahydro-2H-pyran-2-carboxamide [Example 196] | 21 nM | – | 161 nM |

Reference: US12291519B2, “2-hydroxycycloalkane-1-carbamoyl” (Idorsia Pharmaceuticals Ltd, priority 2019, dated 2025)
